Broadly, the IC50 is the midpoint of a concentration-inhibition curve.

The test system of one assay is L929 cells. The assay can be described thus: L929 cell necroptosis assay (TNFa + zVAD, CellTiter-Glo). Format: cell-based, murine. The method, then:
(§1) In this example, U937 and L929 cells were exposed to compounds of the present disclosure and a cell necroptosis assay was conducted to evaluate the compounds' activity against human RIP1 and murine RIP1.
U937 and L929 cells were obtained from the American Type Culture Collection (Manassa, Va., USA). Both cells were maintained in logarithmic growth phase in complete RPMI 1640 media (Sigma, ST Louis, Mo., USA) supplemented with 10% fetal bovine serum (Sigma, ST Louis, Mo., USA) at 37° C. with 5% CO2. For necroptosis assay, L929 cells were plated for 18 h in 100 μL/well medium at 10K cells/well in Costar 96-well black clear-bottom plates (Fisher Scientific, Hampton, N.H., USA); U937 cells were plated on the day of the assay in 50 4/well medium containing 60 uM zVAD-fink (Lonza, Basel, Switzerland) at 50K cells/well. Medium from L929 cells were removed from the 96-well plates and replaced with 50 μL/well new medium containing 40 uM zVAD-fink. Each compound of the present disclosure evaluated in this example was serially diluted in DMSO from 2.5 mM in 4-fold dilutions, and then diluted 1:125 in complete medium. 50 μL/well 2× of the compound was then added to the cells in the plates. […] The relative amount of necroptosis cells was determined by luminescent using a Wallac Victor2 Luminometer (PerkinElmer, Waltham, Mass., USA) and a CellTiter-Glo® Luminescent Cell Viability Reagent Assay (Promega, Madison, Wis., USA) added per manufacturer instructions after 18 hours of TNFa stimulation at 37° C. with 5% CO2.

For another assay, the system named is U937 cells. The assay can be described thus: U937 cell necroptosis assay (TNFa + zVAD, CellTiter-Glo). Format: cell-based, human. As for the experimental part:
as §1
U937 and L929 cells were obtained from the American Type Culture Collection (Manassa, Va., USA). Both cells were maintained in logarithmic growth phase in complete RPMI 1640 media (Sigma, ST Louis, Mo., USA) supplemented with 10% fetal bovine serum (Sigma, ST Louis, Mo., USA) at 37° C. with 5% CO2. For necroptosis assay, L929 cells were plated for 18 h in 100 μL/well medium at 10K cells/well in Costar 96-well black clear-bottom plates (Fisher Scientific, Hampton, N.H., USA); U937 cells were plated on the day of the assay in 50 4/well medium containing 60 uM zVAD-fink (Lonza, Basel, Switzerland) at 50K cells/well. Medium from L929 cells were removed from the 96-well plates and replaced with 50 μL/well new medium containing 40 uM zVAD-fink. Each compound of the present disclosure evaluated in this example was serially diluted in DMSO from 2.5 mM in 4-fold dilutions, and then diluted 1:125 in complete medium. 50 μL/well 2× of the compound was then added to the cells in the plates. The cells were pre-incubated with the compound for 1 hour at 37° C. with 5% CO2 and before addition of 10 μL/well 1 1×TNFa (Peprotech, Rocky Hill, N.J., USA) to give a final concentration of 2 ng/mL for TNFa. The relative amount of necroptosis cells was determined by luminescent using a Wallac Victor2 Luminometer (PerkinElmer, Waltham, Mass., USA) and a CellTiter-Glo® Luminescent Cell Viability Reagent Assay (Promega, Madison, Wis., USA) added per manufacturer instructions after 18 hours of TNFa stimulation at 37° C. with 5% CO2. This example establishes that embodiments of the compounds described herein have unexpectedly potent activity against human RIP1 and murine RIP1, which allows their assessment in in vivo mouse models of disease.
(ATP-based viability assays read luminescence as a measure of living cells.)

Another assay addresses RIPK1 (Homo sapiens (Human), UniProt Q13546). The assay can be described thus: RIPK1 ADP-Glo biochemical kinase assay. The method, then:
The final reaction volume was 5.0ul.
Adding 5 μl of ADP-Glo™ terminated the reaction.
(ADP-Glo turns the ADP formed in a reaction into a luminescent signal.)

Setting [1] is: Mus musculus, L929, L929 cells, TNFa + zVAD, read-out: L929-CTG-recovery, L929, TNFa + zVAD (IC50).
Setting [2] is: Homo sapiens, U-937, U937 cells, TNFa + zVAD, read-out: U937 Zvad TNF CTG Recovery, U937, TNFa + zVAD (IC50).
Setting [3] is: read-out: RIPK1 ADP-Glo Kinase (IC50).

Like-named read-outs stand apart in the source and are kept apart here.

Sequence of RIPK1 (Q13546 whole entry, species assumed): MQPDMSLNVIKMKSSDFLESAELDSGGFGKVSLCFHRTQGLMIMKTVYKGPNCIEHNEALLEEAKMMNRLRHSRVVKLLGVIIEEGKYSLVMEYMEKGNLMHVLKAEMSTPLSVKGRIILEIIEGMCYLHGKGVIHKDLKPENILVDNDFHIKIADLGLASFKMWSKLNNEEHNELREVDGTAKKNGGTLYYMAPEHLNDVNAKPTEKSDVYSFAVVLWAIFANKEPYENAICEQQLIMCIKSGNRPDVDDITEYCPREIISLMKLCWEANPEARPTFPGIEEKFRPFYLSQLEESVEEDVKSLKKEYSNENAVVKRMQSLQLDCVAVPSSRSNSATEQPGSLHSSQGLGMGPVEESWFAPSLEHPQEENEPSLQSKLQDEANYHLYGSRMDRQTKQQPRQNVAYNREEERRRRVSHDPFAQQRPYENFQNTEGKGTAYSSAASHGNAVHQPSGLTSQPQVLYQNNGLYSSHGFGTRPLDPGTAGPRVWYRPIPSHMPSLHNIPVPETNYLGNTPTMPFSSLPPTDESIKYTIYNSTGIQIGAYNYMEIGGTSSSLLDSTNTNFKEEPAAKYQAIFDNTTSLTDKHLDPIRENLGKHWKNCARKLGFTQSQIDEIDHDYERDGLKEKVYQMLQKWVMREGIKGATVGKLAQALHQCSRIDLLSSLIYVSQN

As for `CN1C(=O)[C@@H](NC(=O)c2ncn(Cc3c(Cl)cccc3Cl)n2)COc2ccc(CCC(=O)NC3CC3)cc21` [Compound I-19, (S)—N-(7-(3-(cyclopropylamino)-3-oxopropyl)-5-methyl-4-oxo-2,3,4,5-tetrahydrobenzo[b][1,4]oxazepin-3-yl)-1-(2,6-dichlorobenzyl)-1H-1,2,4-triazole-3-carboxamide], the results for the IC50 in the assay with L929 cells (setting [1]), in the assay with U937 cells (setting [2]) and on RIPK1 (setting [3]) were 1300 nM, 2.7 nM and 146 nM, respectively.
Taken in the same sequence, the figures for `CN1C(=O)[C@@H](NC(=O)c2n[nH]c(Cc3ccccc3)n2)COc2ccc(CCCCOCc3ccccn3)cc21` [Compound I-16, (S)-5-benzyl-N-(5-methyl-4-oxo-7-(4-(pyridin-2-ylmethoxy)butyl)-2,3,4,5-tetrahydrobenzo[b][1,4]oxazepin-3-yl)-1H-1,2,4-triazole-3-carboxamide] were 5670 nM, 51.7 nM and 1630 nM.
Taken in the same sequence, the figures for `COC(=O)C#Cc1ccc2c(c1)N(C)C(=O)[C@@H](NC(=O)c1cc(Oc3ccccc3)ccn1)CO2` [Compound I-159, Methyl (S)-3-(5-methyl-4-oxo-3-(4-phenoxypicolinamido)-2,3,4,5-tetrahydrobenzo[b][1,4]oxazepin-7-yl)propiolate] were 16100 nM, 21 nM and 17.5 nM.
Take `CN1C(=O)[C@@H](NC(=O)c2cc(Oc3ccccc3)ccn2)COc2cc(C#CC(C)(C)O)ccc21` [Compound I-64, (S)—N-(8-(3-hydroxy-3-methylbut-1-yn-1-yl)-5-methyl-4-oxo-2,3,4,5-tetrahydrobenzo[b][1,4]oxazepin-3-yl)-4-phenoxypicolinamide]: the IC50 with L929 cells (setting [1]) was determined as 0.1 nM; in the assay with U937 cells (setting [2]), 0.5 nM; at RIPK1 (setting [3]), 19 nM.
For `Cc1c(Cc2ccccc2)cnn1C(=O)N[C@H]1COc2ccc(C#CC(C)(C)O)cc2N(C)C1=O` [Compound I-220, (S)-4-Benzyl-N-(7-(3-hydroxy-3-methylbut-1-yn-1-yl)-5-methyl-4-oxo-2,3,4,5-tetrahydrobenzo[b][1,4]oxazepin-3-yl)-5-methyl-1H-pyrazole-1-carboxamide], the IC50 came out at 1920 nM in the assay on L929 cells (setting [1]), 8.9 nM in the assay on U937 cells (setting [2]) and 35.5 nM on RIPK1 (setting [3]).
Take `CN1C(=O)[C@@H](NC(=O)c2cc(OC3CCC3)ccn2)COc2ccc(C#CC(C)(C)O)cc21` [Compound I-152, (S)-4-cyclobutoxy-N-(7-(3-hydroxy-3-methylbut-1-yn-1-yl)-5-methyl-4-oxo-2,3,4,5-tetrahydrobenzo[b][1,4]oxazepin-3-yl)picolinamide]: the 50% inhibitory concentration (IC50) in the assay on L929 cells (setting [1]) is 2510 nM; in the assay with U937 cells (setting [2]), 39.1 nM; on RIPK1 (setting [3]), 10.3 nM.
Consider `CN1C(=O)[C@@H](NC(=O)c2cc(Oc3ccccc3)ccn2)COc2ccc(C#CC3(O)CN(C(=O)C(F)(F)F)C3)cc21` [Compound I-151, (S)—N-(7-((3-hydroxy-1-(2,2,2-trifluoroacetyl)azetidin-3-yl)ethynyl)-5-methyl-4-oxo-2,3,4,5-tetrahydrobenzo[b][1,4]oxazepin-3-yl)-4-phenoxypicolinamide], for which the half-inhibitory concentration (IC50) is 1080 nM with L929 cells (Mus musculus, L929, read-out: L929-CTG-recovery, L929, TNFa + zVAD (IC50), L929 cells, TNFa + zVAD); 17 nM with U937 cells (Homo sapiens, U-937, read-out: U937 Zvad TNF CTG Recovery, U937, TNFa + zVAD (IC50), U937 cells, TNFa + zVAD); 55.4 nM on RIPK1 (setting [3]).
Consider `CN1C(=O)[C@@H](NC(=O)c2cc(Oc3cccc(C#N)c3)ccn2)COc2cc(C#CC(C)(C)O)ccc21` [II-21, (S)-4-(3-cyanophenoxy)-N-(8-(3-hydroxy-3-methylbut-1-yn-1-yl)-5-methyl-4-oxo-2,3,4,5-tetrahydrobenzo[b][1,4]oxazepin-3-yl)picolinamide], for which the half-maximal inhibitory concentration (IC50) was determined as 3440 nM in the assay with L929 cells (setting [1]), 14.3 nM with U937 cells (setting [2]) and 40.9 nM on RIPK1 (setting [3]).
On to `CN1C(=O)[C@@H](NC(=O)c2n[nH]c(Cc3ccccc3)n2)COc2ccc(C#CC(C)(C)O)cc21` [Compound I-36, (S)-5-benzyl-3-((7-(3-hydroxy-3-methylbut-1-yn-1-yl)-5-methyl-4-oxo-2,3,4,5-tetrahydrobenzo[b][1,4]oxazepin-3-yl)carbamoyl)-1,2,4-triazol-1-ide], for which the IC50 stood at 1.4 nM in the assay on L929 cells (L929 cells, TNFa + zVAD, read-out: L929-CTG-recovery, L929, TNFa + zVAD (IC50)); 2.2 nM in the assay on U937 cells (U937 cells, TNFa + zVAD, read-out: U937 Zvad TNF CTG Recovery, U937, TNFa + zVAD (IC50)); 33.8 nM on RIPK1 (setting [3]).
In the case of `CN1C(=O)[C@@H](NC(=O)c2cc(OC3CCCC3)ccn2)COc2ccc(C#CC(C)(C)O)cc21` [Compound I-156, (S)-4-(cyclopentyloxy)-N-(7-(3-hydroxy-3-methylbut-1-yn-1-yl)-5-methyl-4-oxo-2,3,4,5-tetrahydrobenzo[b][1,4]oxazepin-3-yl)picolinamide], the figures for the half-maximal inhibitory concentration (IC50) with L929 cells (setting [1]), in the assay with U937 cells (setting [2]) and on RIPK1 (setting [3]) were 10300 nM, 55.4 nM and 27.3 nM, respectively.
Taken in the same sequence, the figures for `CN1C(=O)[C@@H](NC(=O)c2cc(Oc3ccc(C#N)cc3)ccn2)COc2ccc(C#CC(C)(C)O)cc21` [II-18, (S)-4-(4-cyanophenoxy)-N-(7-(3-hydroxy-3-methylbut-1-yn-1-yl)-5-methyl-4-oxo-2,3,4,5-tetrahydrobenzo[b][1,4]oxazepin-3-yl)picolinamide] were 6640 nM, 286 nM and 51.8 nM.
Consider `CN1C(=O)[C@@H](NC(=O)c2cc(Cc3ccc(F)cc3)ccn2)COc2ccc(C#CC3(O)COC3)cc21` [Compound I-126, (S)-4-(4-fluorobenzyl)-N-(7-((3-hydroxyoxetan-3-yl)ethynyl)-5-methyl-4-oxo-2,3,4,5-tetrahydrobenzo[b][1,4]oxazepin-3-yl)picolinamide], for which the half-inhibitory concentration (IC50) in the assay on L929 cells (setting [1]) came out at 55.3 nM; in the assay with U937 cells (setting [2]) it was 3.5 nM; at RIPK1 (setting [3]) it was 24.6 nM.
As for `CN1C(=O)[C@@H](NC(=O)c2ncn(Cc3ccccc3F)n2)COc2ccc(CCC(=O)Nc3ccc4cn[nH]c4c3)cc21` [Compound I-7, (S)—N-(7-(3-((1H-indazol-6-yl)amino)-3-oxopropyl)-5-methyl-4-oxo-2,3,4,5-tetrahydrobenzo[b][1,4]oxazepin-3-yl)-1-(2-fluorobenzyl)-1H-1,2,4-triazole-3-carboxamide], the values for the IC50 in the assay on L929 cells (setting [1]), in the assay on U937 cells (setting [2]) and on RIPK1 (setting [3]) were 1960 nM, 0.9 nM and 21 nM, respectively.
Regarding `CN1C(=O)[C@@H](NC(=O)c2cc(Oc3ccccc3)ccn2)COc2cc(N3CCC4(CCOCC4)CC3)ccc21` [II-26, (S)—N-(5-methyl-4-oxo-8-(3-oxa-9-azaspiro[5.5]undecan-9-yl)-2,3,4,5-tetrahydrobenzo[b][1,4]oxazepin-3-yl)-4-phenoxypicolinamide], the IC50 was 510 nM in the assay on U937 cells (setting [2]) and 193 nM on RIPK1.
`COc1cc2ncnc(NC(=O)CCc3ccc4c(c3)N(C)C(=O)[C@@H](NC(=O)c3n[nH]c(Cc5ccccc5)n3)CO4)c2cc1OC` [Compound I-4, (S)-5-benzyl-N-(7-(3-((6,7-dimethoxyquinazolin-4-yl)amino)-3-oxopropyl)-5-methyl-4-oxo-2,3,4,5-tetrahydrobenzo[b][1,4]oxazepin-3-yl)-1H-1,2,4-triazole-3-carboxamide]: the IC50 is 29.3 nM with U937 cells (setting [2]) and 56.8 nM at RIPK1 (setting [3]).
In the same order, the values of `CN1C(=O)[C@@H](NC(=O)c2cc(Oc3ccc(C#N)cc3)ccn2)COc2cc(C#CC(C)(C)O)ccc21` [II-17, (S)-4-(4-cyanophenoxy)-N-(8-(3-hydroxy-3-methylbut-1-yn-1-yl)-5-methyl-4-oxo-2,3,4,5-tetrahydrobenzo[b][1,4]oxazepin-3-yl)picolinamide] are 1490 nM and 518 nM.

For the origin of these results see patent publication US11407736B2 (priority 2019, dated 2022).
